Assay results reported in paper PMC9655618 (Cancers, 2022).

Experiments:
[1] = target: T1, ERα protein level in T47D cells (Homo sapiens, UniProt P03372); experiment: Immunoblotting; assay type: cell-based; settings: E2-non depleted T47D cells, 24, 48 and 72 h
T1 construct: from whole-cell extracts of T47D cells; endogenous in cells; host or cells: T47D
Method: (§1) Then, they were washed with ice-cold PBS supplemented with 1 mM ortovanadate and lysed with RIPA buffer containing protease and phosphatase inhibitors (Thermo Fisher Scientific, Waltham, MA, USA). Equal protein amounts were analyzed by SDS–PAGE, and transferred to nitrocellulose membranes (Thermo Fisher Scientific, Waltham, MA, USA), blocked with Tris-buffered saline/0.05% Tween 20 (TBS-T) containing 5% blotto (Merck, Darmstadt, Germany) or 5% BSA for total and phosphorylated proteins, respectively. Immunoblotting was carried out with mouse anti-ERα F-10 (Santa Cruz Biotech, Santa Cruz, CA, USA), rabbit total anti-STAT5 (Cell Signaling Technology, Leiden, The Netherlands) or mouse anti-polyubiquitin (EMD Millipore, Burlington, MA, USA). After washing, membranes were incubated with horseradish peroxidase-conjugated secondary antibodies (Bio-Rad) for 1 h at room temperature. The β-actin antibody (Santa Cruz Biotech, CA, USA) was used as the loading control. Finally, protein bands were visualized by using Clarity™ Western ECL Substrate (Bio-Rad) in the ChemiDoc XRS system (Bio-Rad) and were analyzed with Quantity One software (Bio-Rad).

[2] = test system: ERα, pS2 and PR mRNA in Ishikawa cells; experiment: Quantitative real-time PCR of ERα-regulated genes; assay type: cell-based, human; settings: for effect on E2-induced mRNA expression: 3 h pretreatment, E2 10 nM 24 h; for induction of basal mRNA level of PR gene: absence of E2
Method: (§2) For gene expression analysis, MCF-7 and Ishikawa cells were deprived of steroid hormones by using a 10DCC-FBS medium for five days. Then, 1,500,000 cells/dish were seeded in 5DCC-FBS, followed by treatment with test compounds. Total RNA was isolated by using TRItidy G™ (Panreac Applichem ITW Reagents, Darmstadt, Germany). The concentration and purity of RNA were determined with a NanoDrop 1000 spectrophotometer (Wilmington, NC, USA). Then, 1 µg of total RNA was reversed and amplified with the iScriptTM kit (Bio-Rad) following the manufacturer’s protocol. SYBR Green PCR Master mix (Applied Biosystems, Bedford, MA, USA) reagent and exon-specific primers for ERα were used for Real-time quantitative PCR (qPCR). Gene expression was analyzed with an Mx3005P qPCR System (Agilent, Santa Clara, CA, USA), and cycle threshold values were calculated using MxPro qPCR Software (Agilent, CA, USA). Target gene expression was normalized to the expression of the 18S housekeeping gene. Data were expressed as relative expression values according to the comparative CT method for qPCR [42].

[3] = test system: ERα, pS2 and PR mRNA in MCF-7 cells; experiment: Quantitative real-time PCR of ERα-regulated genes; assay type: cell-based, human; settings: 3 h pretreatment, E2 10 nM 24 h; 32 5 µM, 35 10 µM, ICI 0.1 µM, 4-OHTAM 1 µM
Method: as §2

[4] = test system: PBMC; experiment: MTT cell viability assay; assay type: cell-based; settings: Homo sapiens, 72 h, 10%FBS growth media
Method: (§3) Straightforward, the tetrazolium salt 3-(4,5-methyltiazol-2yl-)-2,5diphenyl-tetrazolium bromide (MTT) (Applichen, Darmstadt, Germany) was added to cells, incubated for 2–4 h at 37 °C, and lysed in 10% SDS.

[5] = test system: MCF-10A cells; experiment: Drug combination assay with 4-OHTAM (MTT); settings: Homo sapiens, 72 h, read-out: IC50, cell viability inhibition
Method: Cells were seeded at 5000 and 7500 cells, per well, respectively, and cell viability was assessed by MTT assays 72 h after treatment. Briefly, cells were incubated with constant ratio combinations of indicated test compounds by doubling dilutions of the individual drugs over a wide range of concentrations [43]. […] Dose-effect curves of the individual or combined compounds were plotted and assessed by the median effect method of Chou and Talalay [43] using Calcusyn software 2.0 (Biosoft, Cambridge, UK), thus obtaining the combination index (CI) values. CI values less than 1, equal to 1, and greater than 1 indicated synergism, addition, and antagonism, respectively.

[6] = test system: T47D cells; experiment: MTT cell viability assay; assay type: cell-based, human; settings: Homo sapiens, T47D, 72 h, 10%FBS growth media
Method: Straightforward, the tetrazolium salt 3-(4,5-methyltiazol-2yl-)-2,5diphenyl-tetrazolium bromide (MTT) (Applichen, Darmstadt, Germany) was added to cells, incubated for 2–4 h at 37 °C, and lysed in 10% SDS. The mitochondrial metabolization of the tetrazolium salt was determined by the analysis of the optical density at 595 nm, measured with the iMark microplate Reader (Bio–Rad, Irvine, CA, USA).

[7] = test system: VERO cells; experiment: MTT cell viability assay; assay type: cell-based, monkey; settings: Primates, Vero, 72 h, 10%FBS growth media
Method: as §3

[8] = test system: total STAT5 protein level in T47D cells; experiment: Immunoblotting; assay type: cell-based, human; settings: 24–72 h
Method: as §1

[9] = target: T2, ERα protein in T47D E2-deprived cells (Homo sapiens, UniProt P03372); experiment: Immunofluorescence (confocal microscopy); assay type: cell-based; settings: 5 µM 24 h, then E2 1 nM 30 min
T2 construct: ERα protein expression were also explored in T47D E2-deprived BC cells; endogenous in cells; host or cells: T47D (steroid-deprived)
Method: T47D cells were seeded with steroid-deprived FBS (10% DCC-FBS) RPMI medium supplemented with L-Glutamine/HEPES/sodium pyruvate/PEST. Then, cells were seeded at 175,000 cells/well in 5% DCC-FBS in 6-well plates containing 22 × 22 mm coverslips (Menzelgläser, vWR, Radnor, PA, USA). […] After this, cells were washed with PBS, fixed in 4% paraformaldehide (PFA; Sigma-Aldrich, St. Louis, MO, USA) for 15 min, blocked-permeabilized in PBS-0.5% BSA-0.1% Triton X-100 (Thermo Scientific, Waltham, MA, USA) for 1 h, and, finally, incubated with mouse ERα (Santa Cruz Biotech, CA, USA) and rabbit β-catenin (C2206 Sigma-Aldrich, St. Louis, MO, USA) primary antibodies in the same blocking solution overnight at 4 °C within a hand-made humid chamber. After three washing with PBS-0.5% BSA-0.1% Triton X-100 (Thermo Scientific, Waltham, MA, USA), cells were incubated with anti-mouse Alexa fluor 488 (Life Technologies, CA, USA) or anti-rabbit Alexa 647 (Life Technologies, Carlsbad, CA, USA) secondary antibodies, containing DAPI (4′,6-diamidino-2-phenylindole; Sigma-Aldrich, St. Louis, MO, USA), for 1 h at room temperature. Finally, slides were mounted with Fluormount-G® (Thermo Fisher Scientific, Waltham, MA, USA), and cells were visualized using a confocal microscope Zeiss LSM 800 (Carl Zeiss AG, Jena, Germany). The fluorescent signal was quantified by using a segmentation method for image analysis.

Row | Compound | effect on ERα protein level [1] | effect on E2-induced mRNA expression [2] | induction of basal mRNA level of PR gene [2] | effect on E2-induced mRNA expression [3] | IC50 [4] | IC50 [5] | IC50 [6] | IC50 [7] | effect on total STAT5 protein level [8] | effect on ERα protein levels by confocal microscopy [9]
1 | Cc1ccc(C2=CC(O)(c3ccccc3)N(Cc3ccccc3)C2=O)cc1C (centres unmarked) [compound 32, 1-benzyl-3-(3,4-dimethylphenyl)-5-hydroxy-5-phenyl-1H-pyrrol-2(5H)-one] | needed a longer time of cell exposure | significative reduction of PR-activated gene expression | 2.5 fold | inhibited E2-induced ERα, pS2 and PR mRNA expression | > 30 µM | 0.35 µM | 10.6 ± 0.58 µM | 14.7 ± 1.31 µM | this effect was not provoked | showed no effects
2 | O=C1C(c2ccc([N+](=O)[O-])cc2)=CC(O)(c2ccccc2)N1Cc1ccccc1 (centres unmarked) [compound 35, 1-benzyl-5-hydroxy-3-(4-nitrophenyl)-5-phenyl-1H-pyrrol-2(5H)-one] | dose-dependent (Figure 14B) decrease of ERα protein content | notably downregulated E2-induced ERα and PR mRNA levels | 5 fold | inhibited E2-induced ERα, pS2 and PR mRNA expression | 17.3 ± 6.48 µM | > 0.56 µM | 5.31 ± 0.47 µM | 9.61 ± 0.16 µM | this effect was not provoked | significantly decreased ERα protein levels both in nuclei and cytoplasmic compartments
